Here are results for ten compounds from US20240251792A1, “WEED CONTROL METHOD” (SYNGENTA CROP PROTECTION AG, priority 2021, published 2024).

Common to all, as to assay type: in vivo
One test concerns AMARE. Put plainly: Pre-emergence biological efficacy (Table 3). The following applies: 1000 g/ha, after 13 days; for pest or weed control at 1000 g/ha: Amaranthus retroflexus, 312 h, read-out: evaluation (100=total damage to plant; 0=no damage to plant). An outline of the steps:
(§1)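 Seeds sown in standard soil and sprayed one day later with compound formulated in acetone/AMA solvent-emulsifier, diluted in 0.2% Genapol X080 to the final dose. Plants grown in glasshouse at 24/18° C, 15 h light, 50% humidity. Damage scored after 13 days (0=none, 100=total).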

The test system of a further test is IPOHE. Put plainly: Pre-emergence biological efficacy (Table 3). The following applies: 1000 g/ha, after 13 days; for pest or weed control at 1000 g/ha: Ipomoea hederacea, 312 h, read-out: evaluation (100=total damage to plant; 0=no damage to plant). In outline:
as §1

Another test has as its system ECHCG. Put plainly: Pre-emergence biological efficacy (Table 3). Particulars: 1000 g/ha, after 13 days; for pest or weed control at 1000 g/ha: Echinochloa crus-galli, 312 h, read-out: evaluation (100=total damage to plant; 0=no damage to plant). In outline:
as §1

Another test has as its system STEME. Put plainly: Pre-emergence biological efficacy (Table 3). Particulars: after 13 days; for pest or weed control at 1000 g/ha: 312 h, read-out: evaluation (100=total damage to plant; 0=no damage to plant); for evaluation (100=total damage to plant; 0=no damage to plant): 1000 g/ha. In outline: as §1
The next test concerns ZEAMX. Put plainly: Pre-emergence biological efficacy (Table 3). Particulars: 1000 g/ha, after 13 days; for plant injury at 1000 g/ha: 312 h, read-out: evaluation (100=total damage to plant; 0=no damage to plant). An outline of the steps: as §1
A further test concerns ABUTH. Put plainly: Pre-emergence biological efficacy (Table 3). The following applies: after 13 days; for pest or weed control at 1000 g/ha: Abutilon theophrasti, 312 h, read-out: evaluation (100=total damage to plant; 0=no damage to plant); for evaluation (100=total damage to plant; 0=no damage to plant): 1000 g/ha. An outline of the steps:
as §1

For a further test, the system named is weeds and/or crops. Put plainly: Post-emergence biological efficacy (Table 4). The following applies: 1000 g/ha, evaluated after 13 days; for pest or weed control at 1000 g/ha: 312 h. In outline:
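Scores are visual damage (0 = none, 100 = total), read 13 days after treatment at 24/18 °C with 15 h light. Plants had been sown in standard soil and grown 14 days before a spray of compound in F50/acetone, diluted with 0.2% Genapol X080.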

Where [1] appears, read: STEME, read-out: damage to plant STEME (100=total damage; 0=no damage).
[2] abbreviates: ZEAMX, read-out: damage to plant ZEAMX (100=total damage; 0=no damage).
[3] abbreviates: Abutilon theophrasti, ABUTH, read-out: damage to plant ABUTH (100=total damage; 0=no damage).
Where [4] appears, read: Amaranthus retroflexus, AMARE, read-out: damage to plant AMARE (100=total damage; 0=no damage).
[5] abbreviates: Ipomoea hederacea, IPOHE, read-out: damage to plant IPOHE (100=total damage; 0=no damage).
The mark [6] stands for this setting: Echinochloa crus-galli, ECHCG, read-out: damage to plant ECHCG (100=total damage; 0=no damage).

Read-outs that look alike come from different tables or passages of the source.

As to `O=C(O)C(F)(F)c1c(Cl)ccc2ccccc12` [Compound 1-401, 2-(2-chloronaphthalen-1-yl)-2,2-difluoroacetic acid], the pest or weed control at 1000 g/ha in the test on AMARE was determined as 80%; in the test on IPOHE, 50%; with ECHCG it was 30%; in the test on STEME it was 80%; with ABUTH, 60%; in the test on weeds and/or crops (setting [1]), 80%. The pest or weed control at 1000 g/ha with weeds and/or crops (setting [2]) was found to be 10%; with weeds and/or crops (setting [3]) it was 80%; with weeds and/or crops (setting [4]) it was 70%; with weeds and/or crops (setting [5]), 80%. The plant injury at 1000 g/ha in the test with ZEAMX was determined as 0%.
`O=C(O)C(F)(F)c1c(F)ccc2cccnc12` [Compound 1-406, 2,2-Difluoro-2-(7-fluoro-8-quinolyl)acetic acid]: the pest or weed control at 1000 g/ha in the test on AMARE is 80%; with IPOHE it was 60%; in the test on ECHCG, 0%; in the test on STEME it was 50%; in the test with ABUTH it was 60%; with weeds and/or crops (setting [1]), 70%. The pest or weed control at 1000 g/ha is 40% in the test with weeds and/or crops (setting [2]); 70% with weeds and/or crops (setting [3]); 80% in the test on weeds and/or crops (setting [4]); 20% in the test on weeds and/or crops (setting [6]); 80% in the test with weeds and/or crops (setting [5]). The plant injury at 1000 g/ha in the test with ZEAMX came to 10%.
On to `O=C(O)C(F)(F)c1c(Cl)ccc2cccnc12` [Compound 1-407, 2-(7-Chloroquinolin-8-yl)-2,2-difluoroacetic acid], for which the pest or weed control at 1000 g/ha in the test on AMARE came to 60%; in the test with IPOHE, 60%; in the test on ECHCG it was 50%; in the test with STEME, 10%; in the test on ABUTH it was 70%; in the test with weeds and/or crops (setting [1]), 30%. The pest or weed control at 1000 g/ha is 0% in the test on weeds and/or crops (setting [2]), 70% in the test on weeds and/or crops (setting [4]), 0% in the test on weeds and/or crops (setting [6]) and 80% with weeds and/or crops (setting [5]). Further, in the test on ZEAMX, the plant injury at 1000 g/ha worked out at 40%.
In the case of `O=C(O)C(F)(F)c1cccc2nccnc12` [Compound 1-409, 2,2-Difluoro-2-(quinoxalin-5-yl)acetic acid], the pest or weed control at 1000 g/ha was 50% with AMARE; 70% in the test on IPOHE; 20% with ECHCG; 30% in the test on STEME; 70% in the test with ABUTH; 40% in the test with weeds and/or crops (setting [1]). Also, the pest or weed control at 1000 g/ha with weeds and/or crops (setting [2]) was determined as 10%; in the test on weeds and/or crops (setting [4]), 70%; with weeds and/or crops (setting [6]), 10%; in the test on weeds and/or crops (setting [5]), 80%. Further, the plant injury at 1000 g/ha in the test on ZEAMX stood at 0%.
Regarding `O=C(O)C(F)(F)c1cccc2cccc(Cl)c12` [Compound 1-416, 2-(8-chloro-1-naphthyl)-2,2-difluoro-acetic acid], the pest or weed control at 1000 g/ha with AMARE worked out at 90%; in the test with IPOHE, 90%; in the test with ECHCG, 40%; with STEME, 80%; in the test on ABUTH, 80%; in the test on weeds and/or crops (setting [1]), 90%. Moreover, the pest or weed control at 1000 g/ha with weeds and/or crops (setting [2]) was 20%; in the test with weeds and/or crops (setting [4]) it was 80%; in the test with weeds and/or crops (setting [6]), 10%; with weeds and/or crops (setting [5]) it was 80%. In the test with ZEAMX, the plant injury at 1000 g/ha is 10%.
Consider `Nc1ccc(Cl)c(Cl)c1C(F)(F)C(=O)[O-].[Li+]` [Compound 5-80, Lithium;2-(6-amino-2,3-dichloro-phenyl)-2,2-difluoro-acetate], for which the “evaluation (100=total damage to plant; 0=no damage to plant)” value in the test with AMARE, with IPOHE, in the test with ECHCG, in the test on STEME, with ZEAMX and with ABUTH was 0 throughout. Also, the “damage to plant AMARE (100=total damage; 0=no damage)” value in the test with weeds and/or crops (AMARE) was found to be 20. Further, in the test with weeds and/or crops (ECHCG), the “damage to plant ECHCG (100=total damage; 0=no damage)” value came out at 0. Besides, in the test with weeds and/or crops (IPOHE), the “damage to plant IPOHE (100=total damage; 0=no damage)” value is 10. Further, the “damage to plant STEME (100=total damage; 0=no damage)” value with weeds and/or crops (STEME) stood at 10. In addition, the “damage to plant ZEAMX (100=total damage; 0=no damage)” value in the test on weeds and/or crops (ZEAMX) stood at 10.
Turning to `N.Nc1ccc(C(F)(F)C(=O)O)c(Cl)c1Cl` [Compound 7-75, Ammonium;2-(4-amino-2,3-dichloro-phenyl)-2,2-difluoro-acetate], the “evaluation (100=total damage to plant; 0=no damage to plant)” value in the test with AMARE came out at 70; with IPOHE, 20; in the test with ECHCG, 30; in the test with STEME, 70; with ZEAMX, 0; with ABUTH it was 70. The “damage to plant AMARE (100=total damage; 0=no damage)” value in the test with weeds and/or crops (AMARE) is recorded as 70. For the same compound, the “damage to plant ECHCG (100=total damage; 0=no damage)” value in the test on weeds and/or crops (ECHCG) is on record as 60. For the same compound, in the test with weeds and/or crops (IPOHE), the “damage to plant IPOHE (100=total damage; 0=no damage)” value is on record as 20. Also, in the test on weeds and/or crops (STEME), the “damage to plant STEME (100=total damage; 0=no damage)” value is reported as 90. Moreover, in the test on weeds and/or crops (ZEAMX), the “damage to plant ZEAMX (100=total damage; 0=no damage)” value amounted to 10.
In the case of `O=C(O)C(F)(F)c1cccc([N+](=O)[O-])c1Cl` [Compound 7-237, Ammonium 2-(2-chloro-3-nitro-phenyl)-2,2-difluoro-acetate], the pest or weed control at 1000 g/ha with AMARE came to 0%; in the test on IPOHE, 50%; in the test on ECHCG it was 0%; in the test on STEME it was 0%; with ABUTH, 10%; in the test on weeds and/or crops (setting [1]), 0%. Moreover, the pest or weed control at 1000 g/ha amounted to 0% in the test on weeds and/or crops (setting [2]); 0% in the test with weeds and/or crops (setting [3]); 50% in the test on weeds and/or crops (setting [4]); 10% in the test on weeds and/or crops (setting [6]); 60% in the test on weeds and/or crops (setting [5]). For the same compound, in the test on ZEAMX, the plant injury at 1000 g/ha turned out to be 0%.
As to `O=C(O)C(F)(F)c1cccc(Cl)c1[N+](=O)[O-]` [Compound 7-250, Ammonium 2-(3-chloro-2-nitro-phenyl)-2,2-difluoro-acetate], the pest or weed control at 1000 g/ha was 100% with AMARE; 90% with IPOHE; 30% in the test with ECHCG; 100% with STEME; 90% in the test with ABUTH; 100% in the test on weeds and/or crops (setting [1]). Besides, the pest or weed control at 1000 g/ha in the test with weeds and/or crops (setting [2]) was found to be 20%; with weeds and/or crops (setting [3]), 90%; in the test on weeds and/or crops (setting [4]), 100%; in the test on weeds and/or crops (setting [6]) it was 30%; in the test on weeds and/or crops (setting [5]), 80%. Besides, the plant injury at 1000 g/ha with ZEAMX amounted to 50%.
In the case of `Nc1c(Cl)ccc(Cl)c1C(F)(F)C(=O)O` [Compound 7-254, 2-(2-amino-3,6-dichlorophenyl)-2,2-difluoroacetic acid], the pest or weed control at 1000 g/ha in the test with AMARE was found to be 20%; with IPOHE, 10%; in the test with ECHCG it was 0%; in the test with STEME, 30%; with ABUTH, 40%; with weeds and/or crops (setting [1]), 60%. Also, the pest or weed control at 1000 g/ha in the test with weeds and/or crops (setting [2]) was determined as 20%; with weeds and/or crops (setting [3]), 30%; in the test on weeds and/or crops (setting [4]), 50%; with weeds and/or crops (setting [6]), 0%; with weeds and/or crops (setting [5]), 30%. Further, the plant injury at 1000 g/ha in the test on ZEAMX was 10%.
